Assay results as given in PubChem BioAssay AID1963866 (Molecular Pharmacology Branch, DTP, NCI, 2024).

Tested on: PDC KRAS tumor spheroids with HUVEC/MSC, viability
Experiment: Anticancer human tumor 349418-098-R-PDC patient-derived lung adenocarcinoma cell line growth inhibition [KRAS2]
Conditions: for IC50: curve of first compound; for viability, T/C: stronger effect = lower value
Excerpt: Multicellular complex tumor spheroid response to RAS pathway inhibitors in combination with a targeted agents in patient-derived cell lines with oncogenic KRAS variants from multiple cancer types
A high-throughput screen of multi-cell type tumor spheroids was designed to identify active combinations of targeted small molecules and KRAS pathway inhibitors. Complex spheroids include a stromal component modeled by human endothelial cells (HUVEC) and fibroblasts modeled by human mesenchymal stem cells (MSCs). The concentration ranges selected for each drug and investigational agent were based upon clinically achievable concentrations if the clinical Cmax of the agent was known.
Compounds. The drugs and investigational agents: BI-3406 (NSC825286), BAY-293 (NSC824723), batoprotafib (TNO155; NSC825523), sotorasib (AMG 510; NSC818433), MRTX1257 (NSC819558), elimusertib (BAY 1895344; NSC800525), molibresib (GSK525762; NSC774829), temuterkib (LY3214996; NSC803410), venetoclax (NSC766270), alisertib (NSC759677), olaparib (NSC753686), talazoparib (NSC767125), erdafitinib (NSC781556), ipatasertib (NSC767898), cabozantinib (NSC761068), nintedanib (NSC756659), abemaciclib (NSC768073), docetaxel (NSC628503), trametinib (NSC758246), and sapanisertib (NSC764658) were obtained from the National Cancer Institute (NCI) Developmental Therapeutics Program Chemical Repository. The FDA-approved anticancer drug set is available from the Developmental Therapeutics Program. […] The stock solutions were prepared in dimethyl sulfoxide (DMSO, Sigma-Aldrich, St. Louis, MO, cat. D2650) at 800-fold the tested concentration and stored at -70 degrees C prior to their use. All drugs and investigational agents were tested over a range starting from a high concentration at or near the clinical Cmax and decreasing in half-log increments. If the clinical Cmax for an agent had not been determined, the highest concentration tested was 10 microM.
Cell Culture. All cells were maintained in an incubator at 37 degrees C and 5% CO2 with 95% humidity. The PDC lines were cultured according to standard operating procedures established by the NCI PDMR (https://pdmr.cancer.gov/sops/default.htm). Briefly, all PDCs were thawed and cultured in Matrigel-coated flasks prepared with a working solution of 1X Ham's F-12 nutrient mix, without supplementation (Invitrogen, Waltham, MA, cat. 11765054), 100 U/mL penicillin-streptomycin (Invitrogen, cat. 15140122), and 2.5% Matrigel (Corning Inc., Corning, NY, cat. 354248) for the first three passages. All PDCs were cultured in complete DMEM/F-12 media containing advanced DMEM/F-12 (Invitrogen, cat. 12634028), 4.9% defined fetal bovine serum, heat inactivated (HyClone Laboratories Inc., Logan, UT, cat. SH30070.03HI), 389 ng/mL hydrocortisone (Sigma-Aldrich, cat. H4001), 9.7 ng/mL human EGF recombinant protein (Invitrogen, cat. PHG0313), 23.4 microg/mL adenine (Sigma-Aldrich, cat. A2786), 97.3 U/mL penicillin-streptomycin (Invitrogen, cat. 15140122), 1.9 mM L-glutamine (Invitrogen, cat. 25030081), and 9.7 microM Y-27632 dihydrochloride (Tocris Bioscience, Bristol, United Kingdom, cat. 1254). The PDCs were cultured in complete DMEM/F12 media without 9.7 microM Y-27632 dihydrochloride for at least two passages prior to the screen. The established cell line HOP-62 was cultured in RPMI 1640 medium, HEPES (Invitrogen, cat. 22400105) with 10% defined fetal bovine serum (HyClone Laboratories Inc., cat. SH30070.03) and 2 mM L-glutamine (Invitrogen, cat. 25030081). The pooled donor HUVEC were cultured in endothelial cell growth medium 2 (PromoCell, Heidelberg, Germany, cat. C-22011) and the hMSC were cultured in mesenchymal stem cell growth medium 2 (PromoCell, cat. C-28009). For all experiments, HUVEC and hMSC were used at passages </=5, while the malignant cell lines were used at passages </=15. […]

[1] = second compound 0.1 µM, first compound 0.0316 µM
[2] = second compound 0.1 µM, first compound 0.1 µM
[3] = second compound 0.1 µM, first compound 0.316 µM
[4] = second compound 0.1 µM, first compound 1 µM
[5] = second compound 0.1 µM, first compound 3.16 µM
[6] = second compound 0.1 µM, first compound 10 µM
[7] = second compound 0.316 µM, first compound 0.0316 µM
[8] = second compound 0.316 µM, first compound 0.1 µM
[9] = second compound 0.316 µM, first compound 0.316 µM
[10] = second compound 0.316 µM, first compound 1 µM
[11] = second compound 0.316 µM, first compound 3.16 µM
[12] = second compound 0.316 µM, first compound 10 µM
[13] = second compound 1 µM, first compound 0.0316 µM
[14] = second compound 1 µM, first compound 0.1 µM
[15] = second compound 1 µM, first compound 0.316 µM
[16] = second compound 1 µM, first compound 1 µM
[17] = second compound 1 µM, first compound 3.16 µM
[18] = second compound 1 µM, first compound 10 µM
[19] = second compound 3.16 µM, first compound 0.0316 µM
[20] = second compound 3.16 µM, first compound 0.1 µM
[21] = second compound 3.16 µM, first compound 0.316 µM
[22] = second compound 3.16 µM, first compound 1 µM
[23] = second compound 3.16 µM, first compound 3.16 µM
[24] = second compound 3.16 µM, first compound 10 µM
[25] = second compound 10 µM, first compound 0.0316 µM
[26] = second compound 10 µM, first compound 0.1 µM
[27] = second compound 10 µM, first compound 0.316 µM
[28] = second compound 10 µM, first compound 1 µM
[29] = second compound 10 µM, first compound 3.16 µM
[30] = second compound 10 µM, first compound 10 µM
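Note: spheroids exposed to compounds for seven days before readout.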

With `COc1cc(Nc2ncc3c(n2)-c2ccc(Cl)cc2C(c2c(F)cccc2OC)=NC3)ccc1C(=O)O` + C=CC(=O)N1CCN(c2nc(=O)n(-c3c(C)ccnc3C(C)C)c3nc(-c4c(O)cccc4F)c(F)cc23)C(C)C1 the IC50 (second compound 0.1 µM) was < 31.6 nM, the IC50 (second compound 0.316 µM) was < 31.6 nM and the IC50 (second compound 1 µM) was < 31.6 nM. For the same compound, the IC50 (second compound 3.16 µM) was < 31.6 nM, the IC50 (second compound 10 µM) was < 31.6 nM and the viability, T/C [1] was 29%. For the same compound, the viability, T/C [2] was 18.9%, the viability, T/C [3] was 20.6% and the viability, T/C [4] was 42.2%. For the same compound, the viability, T/C [5] was 61.3%, the viability, T/C [6] was 39.2% and the viability, T/C [7] was 45.5%. The viability, T/C [8] was 34.7%, the viability, T/C [9] was 50.7% and the viability, T/C [10] was 59.3%. The viability, T/C [11] was 42.7%, the viability, T/C [12] was 37.5% and the viability, T/C [13] was 14.8%. It also gave a viability, T/C [14] of 32.8%, a viability, T/C [15] of 54.8% and a viability, T/C [16] of 69.5%. It also gave a viability, T/C [17] of 53.1%, a viability, T/C [18] of 42.8% and a viability, T/C [19] of 30.7%. The viability, T/C [20] was 32%, the viability, T/C [21] was 48.5% and the viability, T/C [22] was 37.5%. The viability, T/C [23] was 40.9%, the viability, T/C [24] was 35.7% and the viability, T/C [25] was 29.8%. For the same compound, the viability, T/C [26] was 39.5%, the viability, T/C [27] was 33.7% and the viability, T/C [28] was 35.4%. The viability, T/C [29] was 36.8% and the viability, T/C [30] was 29.3%.
Work on `COc1cc2nccc(Oc3ccc(NC(=O)C4(C(=O)Nc5ccc(F)cc5)CC4)cc3)c2cc1OC` + C=CC(=O)N1CCN(c2nc(=O)n(-c3c(C)ccnc3C(C)C)c3nc(-c4c(O)cccc4F)c(F)cc23)C(C)C1 yielded an IC50 (second compound 0.1 µM) of 1690 nM, an IC50 (second compound 0.316 µM) of 1650 nM and an IC50 (second compound 1 µM) of 1610 nM. The IC50 (second compound 3.16 µM) was 1190 nM, the IC50 (second compound 10 µM) was < 31.6 nM and the viability, T/C [1] was 99.4%. For the same compound, the viability, T/C [2] was 98.3%, the viability, T/C [3] was 90.7% and the viability, T/C [4] was 78.6%. It also gave a viability, T/C [5] of 13.2%, a viability, T/C [6] of 18.1% and a viability, T/C [7] of 93.2%. The viability, T/C [8] was 92.2%, the viability, T/C [9] was 86.4% and the viability, T/C [10] was 75.9%. The viability, T/C [11] was 9.48%, the viability, T/C [12] was 22.8% and the viability, T/C [13] was 83.2%. It also gave a viability, T/C [14] of 80.7%, a viability, T/C [15] of 73.2% and a viability, T/C [16] of 76.7%. The viability, T/C [17] was 10.7%, the viability, T/C [18] was 14.3% and the viability, T/C [19] was 62.1%. The viability, T/C [20] was 64.5%, the viability, T/C [21] was 58.6% and the viability, T/C [22] was 56.4%. For the same compound, the viability, T/C [23] was 10.2%, the viability, T/C [24] was 16.6% and the viability, T/C [25] was 30.1%. The viability, T/C [26] was 38.1%, the viability, T/C [27] was 36% and the viability, T/C [28] was 30.1%. It also gave a viability, T/C [29] of 7.88% and a viability, T/C [30] of 9.17%.
